# In US8114895B2, “Use of bipyridine compound ‘Caerulomycin A’ derivatives and analogs thereof as immunosuppressive agents” (Council of Science and Industrial Research, priority 2005, dated 2012):
# Experiments:
# [1] = Funk and Divekar 1959; cited from earlier work
# CD4^+ T cells = assay: CD28, CTLA-4 and LFA-1 expression on T cells by flow cytometry; assay type: cell-based
# Method: CD28 and CTLA-4 expression was detected on the surface of the resting and ConA activated CD4^+ T cells by flow cytometric analysis. Briefly, the splenocytes (3×10^6 cells/well) were activated with OVA (200 μg/ml) or ConA (1 μg/ml and 2 μg/ml) and were incubated in the presence of different concentrations of Caerulomycin A (0.0125-0.45 μg/ml). The cultures were harvested after 24, 48, 72 and 96 h and cells were stained for the expression of CD4, CD28 and CTLA-4. Further, cultures were also set where Caerulomycin A was added after 24 h and 48 h of the initiation of cultures and the cells were stained after incubating further for 24 h. The cells were harvested and 3-color staining was done using PE (Phycoerythrin) conjugated anti-CD4 Ab, FITC (Fluorescein isothiocyanate) conjugated anti-CTLA-4, and Cy (Cy-chrome) conjugated CD28 Abs. The cells from each suspension were acquired on CELLQUEST software of FACScan (Becton Dickinson, Mountain View, Calif.). […] The analysis for the mean fluorescence intensity (MFI) was done on histograms where abcissa and ordinate denote log fluorescence and relative cell count, respectively.
# Examples establishing the role of Caerulomycin A [isolated from a novel species of Actinoalloteichus] in inducing immunosuppression based on the following: • Splenocytes of BALB/c mice were stimulated with either ConA (1 μg/ml and 2 μg/ml) or LPS (5 μg/ml and 10 μg/ml) and were cultured with different concentrations of Caerulomycin A (0.0003-0.1 μg/ml). […] Radioactivity incorporated was measured by liquid scintillation counting. • Antigen ovalbumin (100 μg/ml) emulsified in Freund's complete adjuvant was injected in a group consisting of 5 BALB/c mice. […] Radioactivity incorporated was measured by liquid scintillation. The culture supernatants were collected after 48 h and cytokines were measured by ELISA. • Immunosuppressive effect of different doses of Caerulomycin A was monitored on naïve CD4^+ T cells, antigen reactive CD4^+ T cells, Th2 clone and Th1 hybridoma. […]
# peritoneal macrophages = assay: Expression of B7-1, B7-2, CD40 and IA^d on peritoneal macrophages by flow cytometry; assay type: cell-based, BALB/c mice
# Method: The expression of B7-1 and B7-2 was detected on the surface of peritoneal macrophages incubated with different concentrations of Caerulomycin A (0.05-0.1 μg/ml). Peritoneal macrophages were harvested from BALB/c mice inoculated 4 days previously with 2-3 ml of thioglycolate. The cells were washed with BSS. The macrophages were obtained by adhering for 1 h at 37° C. on plastic Petri dishes followed by washing several times in cold BSS. The macrophages (1×10^6) were stimulated with 10 μg/ml of LPS for 24, 48 and 72 h in the presence and absence of Caerulomycin A (0.05-0.1 μg/ml) at 37° C. and 7% CO2. Then the cells were harvested and stained with their respective antibodies. Briefly, the cells were centrifuged (1200×g, 4° C., 5 min) and the supernatant was aspirated. The cells were washed 3× with 1% BSA, 0.1% sodium azide in PBS. In the first step, the cells (1×10^6) were incubated with biotinylated anti-mouse B7-1, CD40 and I-A^d (1 μg/100 μl) Abs for 45 min at 4° C. In the next step cells were stained with streptavidin FITC (0.5 μg/100 μl) or PE conjugated anti-mouse B7-2 (0.5 μg/100 μl) Abs and incubated for 45 min. Usual steps of washing were followed at each step. Finally the cells were washed five times and fixed in paraformaldehyde. The stained cells were acquired on a FACScan as mentioned for CD28/CTLA-4. Since the antigen presenting cells express B7-1 and B7-2, which are the ligands of CTLA-4 and CD28. […] The expression of IA^d was detected on the surface of peritoneal macrophages incubated with different concentrations of Caerulomycin A (0.05-0.1 μg/ml). Peritoneal macrophages were harvested from BALB/c mice inoculated 4 days previously with 2-3 ml of thioglycolate. The cells were washed with BSS. The macrophages were obtained by adhering for 1 h at 37° C. on plastic Petri dishes followed by washing several times in cold BSS. The macrophages (1×10^6) were stimulated with 10 μg/ml of LPS for 24, 48 and 72 h in the presence and absence of Caerulomycin A (0.05-0.1 μg/ml) at 37° C. and 7% CO2. Then the cells were harvested and stained with their respective antibodies. Briefly, the cells were centrifuged (1200×g, 4° C., 5 min) and the supernatant was aspirated. The cells were washed 3× with 1% BSA, 0.1% sodium azide in PBS. In the first step, the cells (1×10^6) were incubated with biotinylated anti-mouse I-A^d (1 μg/100 μl) Abs for 45 min at 4° C. In the next step cells were stained with streptavidin FITC (0.5 μg/100 μl) and incubated for 45 min. Usual steps of washing were followed at each step. Finally the cells were washed five times and fixed in paraformaldehyde. The stained cells were acquired on a FACScan as mentioned for CD28/CTLA-4. […] This may indicate that Caerulomycin A may inhibit the processing and presentation of antigen by APC.
# [2] = CD4+ T cells, Caerulomycin A 0.0125-0.45 μg/ml
# [3] = LPS 10 μg/ml, Caerulomycin A 0.05-0.1 μg/ml
smiles,measurement,setting,value
"COc1cc(/C=N/O)nc(-c2ccccn2)c1 [Caerulomycin A, (E)-4-methoxy-2,2′-bipyridine-6-carbaldehyde oxime]",antibacterial activity,[1],mild antibacterial activity
same,antifungal activity,[1],strong antifungal activity
same,expression or percentage of LFA-1 positive cells,CD4^+ T cells,did not exhibit any significant change
same,expression and percentage of CD28,CD4^+ T cells; [2],decreased the expression and percentage
same,expression and percentage of CTLA-4 positive cells,CD4^+ T cells; [2],significantly enhanced the expression but also the percentage
same,display of B7-2,peritoneal macrophages; [3],decreased the display
same,expression of B7-1,peritoneal macrophages; [3],enhanced the expression
same,expression of IA^d,peritoneal macrophages; [3],down regulated the expression
same,expression of CD40,peritoneal macrophages; after 72 h,Slight increase in the expression
